Measurements: US12582632B2, “Inhibition of neurological injuries due to infections via administration of Butanetap and analogs thereof” (priority 2021, dated 2026)

Experiments:
[1] = Plasma and brain levels in mice by dose; assay type: in vivo
Source text: (§2) The doses are provided in mg/kg; mg dose for a 70 kg human; plasma levels in mice and humans (ng/ml); plasma levels in humans (nM); brain levels in mice and humans (ng/gram); oral human efficacious and safe dose (mg/day); IP/P human efficacious and safe dose (mg/day); and IV human efficacious and safe dose (mg/day).

[2] = Phase 1 single and multiple ascending dose safety, tolerance, pharmacokinetic studies in healthy volunteers; assay type: in vivo, human; conditions: Phase I pharmacokinetic analyses
Source text: (§1) Three Phase I clinical studies have established butanetap's safety. […] Therefore, we conclude that a much lower single daily butanetap dose would be effective in the proposed study.

[3] = tested on: APP, Tau, αSYN and inflammatory markers in CSF; assay: MCI subjects proof of mechanism study, CSF markers before and after 10 days; assay type: in vivo, human
Source text: as §1

[4] = Double Alzheimer/Parkinson phase 2 clinical trial; assay type: in vivo, human
Source text: as §1

[5] = tested on: APP in SH-SY-5Y human neuroblastoma cells; assay: APP in vitro, Western blot; assay type: cell-based; conditions: 0, 0.1, 1, 5 and 10 μM, FIG. 1
[6] = tested on: insoluble (aggregated) tau; assay: Tau in vivo, hTau mice, ELISA; conditions: in mouse chow, 6 weeks; three of the 4 ELISA assays, FIG. 4
Procedure: The cells were treated for 4 days with butanetap harvested, solubilized, and tested with antibodies against Tau and phospho-Tau. • B. FIG. 4, Tau in vivo. […] After 6 weeks, mice were killed and the total and insoluble (aggregated) tau was measured. […] Precipitated tau corresponds to tangles in the brain.

[7] = tested on: aSYN in SH-SY-5Y human neuroblastoma cells; assay: alpha-synuclein in vitro, Western blot; assay type: cell-based; conditions: 0, 0.1, 1, 5 and 10 μM, FIG. 5
Procedure: • A. FIG. 5, alpha-synuclein in vitro. […] On the left is a Western blot showing butanetap inhibition of aSYN in relation to Actin standard at concentrations of 0, 0.1, 1, 5 and 10 μM and on the right a graph showing the same data plotted for statistical analysis purposes. • B. FIG. 6, alpha-synuclein brain in vivo. […] The animals were only treated for 2 weeks, so in brain it takes butanetap only 2 weeks to lower levels of alpha-synuclein. • C. FIG. 7, alpha-synuclein in gut in vivo. Gut levels of aSYN following treatment of PD A53T mice with 10 mg/kg for 21 weeks and 21 days reduced αSYN levels in the gut as shown by Western Blot.

[8] = tested on: neuroblastoma cells (SH-SY5Y); assay: Gingipain-induced cell aggregation; assay type: cell-based; conditions: 24 hours RgpB (10 ug/ml), Kgp (10 ug/ml), or both, FIG. 11
[9] = tested on: Ts65dn mouse model of Down syndrome (DS); assay: Ts65dn mouse model of Down syndrome; assay type: in vivo; conditions: Ts65dn mice
Source text: Butanetap's efficacy in treating neurodegeneration in animal models: Restored memory and learning in an APP/PS1 transgenic (tg) mouse model of AD; Restored memory and learning in a Ts65dn mouse model of Down syndrome (DS) [W. Mobley, UCSD, submitted 2020]; Preserved the retina in acute glaucoma [J Sundstrom; Hershey Medical School]; Restored colonic motility in a human SNCAA53T tg mouse model of PD (Kuo et. al., Am J Neurodegener Dis 2019; 8(1):1-15 www.AJND.us/ISSN:216 591X/AJND0086080: Translational inhibition of α-synuclein by Butanetap (Posiphen) normalizes distal colon motility in transgenic Parkinson mice); Preserved memory and learning in traumatic brain injury rats (M-F Chesselet, submitted 2020).

[10] = cited from earlier work
[11] = Plasma and brain levels in humans, calculated and extrapolated from mice data
Source text: as §2

[12] = dose 0.014 mg/kg, 1.0 mg for 70 kg
[13] = dose 0.07 mg/kg, 4.9 mg for 70 kg
[14] = dose 0.143 mg/kg, 10.0 mg for 70 kg
[15] = dose 0.16 mg/kg, 11.2 mg for 70 kg
[16] = dose 0.21 mg/kg, 14.7 mg for 70 kg
[17] = dose 0.23 mg/kg, 16.1 mg for 70 kg
[18] = dose 0.29 mg/kg, 20.3 mg for 70 kg
[19] = dose 0.34 mg/kg, 23.8 mg for 70 kg
[20] = dose 0.57 mg/kg, 39.9 mg for 70 kg
[21] = dose 1 mg/kg, 70.0 mg for 70 kg
[22] = dose 1.14 mg/kg, 79.8 mg for 70 kg
[23] = dose 1.71 mg/kg, 119.7 mg for 70 kg
[24] = dose 2.13 mg/kg, 149.1 mg for 70 kg
[25] = dose 2.29 mg/kg, 160.3 mg for 70 kg

CN1CC[C@]2(C)c3cc(OC(=O)Nc4ccccc4)ccc3N(C)C12 (stereo partly drawn) [butanetap, (3aR)-1,3a,8-trimethyl-1,2,3,3a,8,8a-hexahydropyrrolo[2,3-b]indol-5-yl phenylcarbamate]
Brain levels in mice ([1]; dose 0.014 mg/kg): 0 ng/gram
Brain levels in mice ([1]; dose 0.07 mg/kg): 0 ng/gram
Brain levels in mice ([1]; dose 0.143 mg/kg): 0 ng/gram
Brain levels in mice ([1]; dose 0.16 mg/kg): 0 ng/gram
Brain levels in mice ([1]; dose 0.21 mg/kg): 0 ng/gram
Brain levels in mice ([1]; dose 0.23 mg/kg): 0 ng/gram
Brain levels in mice ([1]; dose 0.29 mg/kg): 0 ng/gram
Brain levels in mice ([1]; dose 0.34 mg/kg): 0 ng/gram
Brain levels in mice ([1]; dose 0.57 mg/kg): 0 ng/gram
Brain levels in mice ([1]; dose 1 mg/kg): 16 ng/gram
Brain levels in mice ([1]; dose 1.14 mg/kg): 16.8 ng/gram
Brain levels in mice ([1]; dose 1.71 mg/kg): 0 ng/gram
Brain levels in mice ([1]; dose 2.13 mg/kg): 31.2 ng/gram
Brain levels in mice ([1]; dose 2.29 mg/kg): 0 ng/gram
Brain levels in mice ([1]; dose 3 mg/kg): 48 ng/gram
Brain levels in mice ([1]; dose 5 mg/kg): 80 ng/gram
Brain levels in mice ([1]; dose 10 mg/kg): 160 ng/gram
Brain levels in mice ([1]; dose 20 mg/kg): 400 ng/gram
Brain levels in mice ([1]; dose 30 mg/kg): 800 ng/gram
Brain levels in mice ([1]; dose 40 mg/kg): 1200 ng/gram
Brain levels in mice ([1]; dose 50 mg/kg): 1680 ng/gram
Brain levels in mice ([1]; dose 60 mg/kg): 2400 ng/gram
Brain levels in mice ([1]; dose 80 mg/kg): 4800 ng/gram
Brain levels in mice ([1]; dose 100 mg/kg): 8000 ng/gram
concentration in brain relative to plasma [2]: about 8 times
aggregating proteins (APP/Aβ, tau/phospho-tau, alpha-synuclein) in CSF ([3]; MCI subjects, 10 days of administration, FIG. 8): normalized
inflammation ([3]; human CSF of MCI subjects): lowered
axonal and synaptic function ([4]; AD and PD patients): improved
inflammatory markers ([4]; AD and PD patients): reduced
neurotoxic protein biomarkers ([4]; AD and PD patients): reduced
blood brain barrier crossing ([4]; AD and PD patients, once daily): crossed the blood brain barrier
cognition as measured by ADAS-Cog11 and WAIS coding speed ([4]; AD patients, 80 mg QD, significant versus baseline, not versus placebo): improved
motor function as measured by MDS-UPDRS (Part II, III, IV and total) ([4]; PD patients, 5, 10, 20, 40, 80 mg QD, maximum improvement for 10 & 20 mg): improved at all doses
WAIS speed and accuracy ([4]; PD patients, significant versus placebo at 5, 20 and 80 mg): improved
APP in relation to Actin standard [5]: lowers APP in vitro in a dose-dependent manner
amount of insoluble tau [6]: significant reduction
aSYN in relation to Actin standard [7]: lowers aSYN in vitro in a dose-dependent manner
gingipain-induced cell aggregation [8]: blocks
memory and learning [9]: Restored
tolerability ([10]; doses up to 4×60 mg daily×10 days): well tolerated
terminal half-life ([10]; plasma, all doses): 4.3 to 4.7 h
Brain levels in humans [11, 12]: 8 ng/gram
Plasma levels in human [11, 12]: 1 ng/mL
Plasma levels in humans [11, 12]: 3 nM
Brain levels in humans [11, 13]: 16 ng/gram
Plasma levels in human [11, 13]: 2 ng/mL
Plasma levels in humans [11, 13]: 6 nM
Brain levels in humans [11, 14]: 29.6 ng/gram
Plasma levels in human [11, 14]: 3.7 ng/mL
Plasma levels in humans [11, 14]: 10 nM
Brain levels in humans [11, 15]: 45.6 ng/gram
Plasma levels in human [11, 15]: 5.7 ng/mL
Plasma levels in humans [11, 15]: 17 nM
Brain levels in humans [11, 16]: 92 ng/gram
Plasma levels in human [11, 16]: 11.5 ng/mL
Plasma levels in humans [11, 16]: 32 nM
Brain levels in humans [11, 17]: 103.2 ng/gram
Plasma levels in human [11, 17]: 12.9 ng/mL
Plasma levels in humans [11, 17]: 38 nM
Brain levels in humans [11, 18]: 112 ng/gram
Plasma levels in human [11, 18]: 14 ng/mL
Plasma levels in humans [11, 18]: 41 nM
Brain levels in humans [11, 19]: 160 ng/gram
Plasma levels in human [11, 19]: 20 ng/mL
Plasma levels in humans [11, 19]: 58 nM
Brain levels in humans [11, 20]: 336 ng/gram
Plasma levels in human [11, 20]: 42 ng/mL
Plasma levels in humans [11, 20]: 123 nM
Brain levels in humans [11, 21]: 720 ng/gram
Plasma levels in human [11, 21]: 90 ng/mL
Plasma levels in humans [11, 21]: 264 nM
Brain levels in humans [11, 22]: 960 ng/gram
Plasma levels in human [11, 22]: 120 ng/mL
Plasma levels in humans [11, 22]: 352 nM
Brain levels in humans [11, 23]: 1600 ng/gram
Plasma levels in human [11, 23]: 200 ng/mL
Brain levels in humans [11, 24]: 1920 ng/gram
Plasma levels in human [11, 24]: 240 ng/mL
Brain levels in humans [11, 25]: 3040 ng/gram
Plasma levels in human [11, 25]: 380 ng/mL
